The nature of series [1]: Preventive effect on formation of indomethacin-induced ulcers. The format is in vivo, rat (female Sprague-Dawley). The note with it: rat, in vivo, iv; LD50 (mouse, i.v.) / ED50 (ulcer); read-out: Therapeutic Index.
For series [2], the system named is indomethacin-induced ulcers. The series is described as above. The format is in vivo, rat (female Sprague-Dawley). Conditions: for ED50: Rattus norvegicus, ip, 4 h, read-out: ED50 (ulcer prevention).
In series [3] the test system is anesthetized Sprague-Dawley rats (blood pressure, pulse frequency). In words: Blood pressure and pulse frequency in anesthetized normal-weight Sprague-Dawley rats (i.v.). The format is in vivo, rat (Sprague-Dawley). The note with it: for minimal effective dose: Rattus norvegicus, iv. The protocol:
The anti-hypertensive properties of the imidazole derivatives of the present invention have been determined according to the following procedure. Sprague-Dawley rats of normal weight were first anesthetized with urethane. After this, the femoral artery was connected by way of a polyethylene tube with a blood pressure transducer. The test substance was then injected into the femoral vein and the blood pressure and the pulse frequency were registered with a recorder. The minimum doses producing a significant change were found, i.e. ± at least 20% in the case of blood pressure, and ± at least 3% in the case of pulse frequency.

The subject of series [4] is male mice on a 55° C. hot plate. In words: Hot plate test. The format is in vivo, mouse (male). Conditions: for change in vivo at 1.5 mg/kg: 1.5 mg/kg i.p. The protocol:
(§1) The analgesic activity of the compounds of formula (I) was tested in the following manner: […]
Test compounds or saline were given i.p. to male mice. Thirty minutes thereafter, the time for which the mice remained on a 55° C. plate was recorded. The results are expressed as compared to saline.
A general note: Hot-plate and tail-flick tests time the reaction to a heat stimulus.

Series [5] relates to cattle (avoidance, muscle tone). In words: Tranquilizing or taming effect on cattle. The format is in vivo. The procedure: (§2) The tranquilizing activity of the compounds was determined by the following methods:
(2) Tranquilizing or taming effect on cattle:
The test compounds were administered i.m. to cattle, mostly to heifers (150-200 kg).
The most suitable tranquilized state of an animal includes the ability to retain the upright position and coordination with minimal avoidance reactions to painful stimuli and handling. Thus, a combination of sedative and analgesic potency is required.

Series [6] deals with rats (motility, muscle tone, catalepsia). Description: Tranquilizing activity: Irwin screen in rats. The format is in vivo, rat. The procedure:
as §2
(1) Irwin screen in rats (Irwin S., Psychopharmacologia 13:222, 1968)
Especially sedatory and cataleptic activity and effects on muscle tone are observed.

The nature of series [7]: Acute toxicity in female NMRI mice, i.v. The note with it: in vivo, iv, mouse. The protocol:
Acute toxicity was determined by using female mice of NMRI-Strain with an age of about 7 months and weighing 30-40 g. The administration of the test compound was i.v.

Series [8] has as its system spontaneous hypertensive rats (SHR) (blood pressure). In words: Blood pressure in unanesthetized Okamoto-Aoki spontaneous hypertensive rats (SHR), peroral. The format is in vivo, rat (Okamoto-Aoki SHR). The protocol:
In a further test for anti-hypertensive properties, unanesthetized Okamoto-Aoki spontaneous hypertensive rats (SHR) were used. The test derivative was administered perorally by way of a tube into the stomach. The blood pressure was measured from the tail using an indirect bloodless method.

The subject of series [9] is carrageenan-induced oedema. Description: Inhibition of carrageenan-induced oedema.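 On Anti-inflammatory activity: ++ means marked effect and + means moderate effect.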 The format is in vivo, rat. The procedure: The anti-inflammatory activity of the compounds of the invention was determined by inhibition of the carrageenan induced oedema in rats by the compounds examined (Winter C. A. et al., Proc. Soc. Exp. Biol. Med. 111:544, 1962).
For orientation: The carrageenan paw model is a standard test of acute inflammation.

Series [10] relates to acetic acid-induced writhing. In words: Writhing test (acetic acid).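 On Analgesic activity: ++ means marked effect and + means moderate effect.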 The format is in vivo, rat. The protocol:
as §1
The compounds studied and saline were administered p.o. to rats. Forty-five minutes later, 1 ml of 1% acetic acid was administered i.p. The number of writhes was recorded in the following 25 minute period (Koster et al: Fed. Proc. 18:412, 1959).

The test system of series [11] is rats (blood pressure). Description: Applicant's experiments on prior-art imidazoles: anti-hypertensive activity / blood pressure in rats. The format is in vivo, rat. The note with it: for antihypertensive activity: found by our experiments.
[12] abbreviates: read-out: Blood Pressure Minimum Dose having a significant lowering effect.
Where [13] appears, read: read-out: Pulse frequency Minimum Dose having a significant lowering effect.
The mark [14] stands for this setting: 10 μg/kg i.v., anesthetized rats, on an average.
Where [15] appears, read: Mus musculus, ip, 0.5 h, read-out: increase in HP-time (%).

Where two headings read alike, the source gives them in different places.

With `Cc1cccc(Cc2c[nH]cn2)c1C` [4-(2',3'-dimethylbenzyl)imidazole, 4-(2',3'-Dimethylbenzyl)imidazole], in [1], the selectivity ratio was found to be 7000. The ED50 in series [2] was 0.005 mg/kg. Further, the minimal effective dose in [3] (setting [12]) is 0.01 to 0.1 mg/kg; in [3] (read-out: Pulse frequency Minimum Dose having a significant increasing effect), 3 to 10 mg/kg; in series [3] (setting [13]), 0.01 to 1 mg/kg. Besides, the Analgesic activity result in [4] (0.6 mg/kg) is on record as “+”. Further, the change in vivo at 0.6 mg/kg in series [4] (Mus musculus, ip, 0.5 h, 0.6 mg/kg i.p., read-out: increase in HP-time (%)) turned out to be 200%. Further, the loss of avoidance result in [5] (0.1 mg/kg i.m.) is recorded as “++”. In addition, the decrease of motility entry in series [6] (1.0 mg/kg) is listed as “+”. The “loss of muscle tone” value in series [6] (1.0 mg/kg) is recorded as “+”. This compound also came in with a 50% lethal dose (LD50) in series [7] of 35 mg/kg.
For `Cc1cc(C)c(Cc2c[nH]cn2)c(C)c1` [4-(2',4',6'-trimethylbenzyl)imidazole, 4-(2',4',6'-Trimethylbenzyl)imidazole], in series [1], the selectivity ratio is 2100. In addition, the ED50 in series [2] was 0.03 mg/kg. In addition, the minimal effective dose in series [3] (setting [12]) fell in the range of 0.05 to 0.2 mg/kg. Moreover, the minimal effective dose in series [3] (setting [13]) is 0.03 mg/kg. In series [5] (0.1 mg/kg i.m.), the loss of avoidance result is on record as “+” and the “loss of muscle tone” value is “+”. In series [6] (1.0 mg/kg), the catalepsia entry is listed as “+” and the decrease of motility result is recorded as “++”. This compound also returned a median lethal dose (LD50) in series [7] of 63 mg/kg.
Take `Cc1cccc(C)c1Cc1cnc[nH]1` [4-(2',6'-dimethylbenzyl)imidazole, 4-(2',6'-Dimethylbenzyl)imidazole]: the selectivity ratio in series [1] amounted to 8000. In addition, the “prevention of the formation of ulcers” value in [2] (5 μg/kg i.p.) is given as “completely prevented the formation of ulcers”. For the same compound, the ED50 in series [2] stood at 0.005 mg/kg. For the same compound, the “lowering of the blood pressure” value in series [3] (1 μg/kg i.v., anesthetized rats) is “detectable lowering of the blood pressure”. Besides, the blood pressure lowering entry in series [3] (3 μg/kg i.v., anesthetized rats) is reported as “quite clear”. Also, in series [3] (setting [14]), the “decrease of pulse frequency” value is recorded as 12% and the “reduction of blood pressure” value turned out to be 30%. The therapeutic range entry in series [3] (LD50 40 mg/kg i.v. in mice versus blood pressure lowering doses) is reported as “very broad”. In addition, in series [3] (setting [12]), the minimal effective dose lay in the range of 0.003 to 0.1 mg/kg. Also, the minimal effective dose in [3] (setting [13]) amounted to 0.003 mg/kg. Moreover, the “duration of the effect” value in series [3] (i.v., anesthetized rats, determination then interrupted) is “at least 50 minutes”. Moreover, in series [5] (0.05 mg/kg i.m.), the loss of avoidance result is “++” and the “loss of muscle tone” value is listed as “+”. Moreover, the “decrease of blood pressure” value in [8] (awake SHR, 100 μg/kg p.o., four hours after administration) is “about 20%”. Further, in series [8] (awake SHR, 300 μg/kg p.o., four hours after administration), the “decrease of blood pressure” value is recorded as 25%. In addition, in [6] (1.0 mg/kg), the decrease of motility result is listed as “++” and the “loss of muscle tone” value is recorded as “+”. The compound further registered a 50% lethal dose (LD50) in series [7] of 40 mg/kg.
For the compound `Clc1ccccc1Cc1c[nH]cn1` [4-(2'-chlorobenzyl)imidazole, 4-(2'-Chlorobenzyl)imidazole], in [1], the selectivity ratio amounted to 2170. For the same compound, the ED50 in [2] was found to be 0.03 mg/kg. Further, in series [4] (1.5 mg/kg), the Analgesic activity result was “+”. In addition, in series [4] (setting [15]), the change in vivo at 1.5 mg/kg turned out to be 200%. Moreover, the loss of avoidance entry in series [5] (0.1 mg/kg i.m.) is listed as “+”. Moreover, in series [6] (0.25 mg/kg), the catalepsia entry is on record as “+” and the decrease of motility entry is given as “+”. In series [7], this compound registered an LD50 of 65 mg/kg.
For `Cc1cccc(Cc2c[nH]cn2)c1` [4-(3'-methylbenzyl)imidazole, 4-(3'-Methylbenzyl)imidazole], the selectivity ratio in series [1] is 1900. Moreover, the ED50 in series [2] stood at 0.02 mg/kg. Besides, in series [9] (100 mg/kg p.o. in the rat), the Anti-inflammatory activity result is “+”. Moreover, in series [9] (Rattus norvegicus, po, read-out: inhibition carrageenan-induced oedema (%)), the inhibition in vivo at 100 mg/kg was found to be 61%. For the same compound, the change in vivo at 1.5 mg/kg in series [4] (setting [15]) turned out to be 50%. In addition, in series [5] (0.1 mg/kg i.m.), the loss of avoidance result is “+”. Besides, the LD50 in series [7] came out at 38 mg/kg. For the same compound, the Analgesic activity result in series [10] (30 mg/kg) is recorded as “++”. Further, the W-number in series [10] (30 mg/kg p.o.) came to 0.
As for `Cc1cccc(C)c1C(O)c1c[nH]cn1` (stereo not drawn) [4-[α-(2',6'-Dimethylphenyl)]hydroxymethylimidazole], the figures for the “prevention of the formation of ulcers” value in [2] (0.5 mg/kg) and in [2] (5 mg/kg) were “the prevention was partial” and “completely prevented the formation of ulcers”, respectively. In series [3] (300 μg/kg i.v.), the “lowering of blood pressure” value is “noticeable”. Moreover, the minimal effective dose in [3] (setting [12]) is 0.1 to 3 mg/kg; in [3] (setting [13]), 0.1 mg/kg. Besides, the “decrease of blood pressure” value in [8] (awake SHR rats, 3 mg/kg p.o., 3 hours after administration) is 20%. Besides, the LD50 in [7] was 125 mg/kg.
In the case of `Cc1[nH]cnc1Cc1ccccc1` [4-benzyl-5-methylimidazole], in [11], the antihypertensive activity result is listed as “no antihypertensive activity”. In addition, the “blood pressure change in rats” value in [11] (rats, 1 mg/kg i.v.) is on record as “the blood pressure rises”. Further, the “blood pressure lowering effect in rats” value in series [11] (rats, at any dosage) is “no blood pressure lowering effect”.
Consider `CCc1[nH]cnc1Cc1ccccc1` [5(4)-ethyl-4(5)-benzylimidazole], for which, in series [11], the antihypertensive activity entry is “no antihypertensive activity”.

In general, ED50 refers to the dose that gives a 50% effect, or the effect in half of the subjects. One may read the LD50 as the dose at which mortality reaches 50%. A low value points to a more toxic substance.

These data come from patent US4443466A, “4-Benzyl- and 4-benzoyl-substituted imidazole derivatives and use as medicaments” (priority 1980, dated 1984).
